# According to US20250381243A1, “HETEROCYCLES AND USES THEREOF” (Kumquat Biosciences Inc., priority 2022, published 2025):
# Read-outs that look alike come from different tables or passages of the source.
# Test system: A549 cells
# Assay: Cell proliferation assay (CellTiter-Glo), cells with K-Ras G12S mutation
# Assay type: cell-based
# Conditions: Homo sapiens, read-out: Inhibition of A549 Cells (IC50)
# Protocol: A549 (ATCC CRL-185) and LS123 (ATCC CRL-255) cell lines comprise a G12S mutation and can be used to assess Ras cellular signaling in vitro, e.g., in response to treatment with a compound described herein. A549 culture medium is prepared with RPMI-1640 and 10% heat-inactivated FBS. LS123 culture medium is prepared with RPMI-1640 and 10% heat-inactivated FBS. A CellTiter-Glo (CTG) luminescent based assay (Promega) is used to assess growth of the cells, as a measurement of the ability of the compounds herein to inhibit Ras signaling in the cells. The cells (e.g., 800 per well) are seeded in their respective culture medium in standard tissue culture-treated 384-well format plates (Falcon #08-772-116) or ultra-low attachment surface 384-well format plates (S-Bio #MS-9384WZ). The day after plating, cells are treated with a dilution series (e.g., a 10 point 3-fold dilution series) of the compounds herein (e.g., approximately 40 μl final volume per well). Cell viability can be monitored (e.g., approximately 6 days later) according to the manufacturer's recommended instructions, where CellTiter-Glo reagent is added (e.g., approximately 10 μl), vigorously mixed, covered, and placed on a plate shaker (e.g., approximately for 20 min) to ensure sufficient cell lysis prior to assessment of luminescent signal. The IC50 values are determined using the four parameter fit. The resulting IC50 value is a measurement of the ability of the test compound to reduce cell growth of Ras-driven cells (e.g., tumor cell lines) in vitro and/or in vivo.
Compound,IC50 (≤500 nM),IC50 (500 nM to 5 μM (mixed units))
"N#Cc1c(N)sc2c(F)ccc(-c3c(Cl)cc4c(N5CCCC[C@@]6(C5)CN(C(=O)n5cnc(Cl)n5)[C@@H]6C5CC5)nc(OC[C@@]56CCCN5C[C@H](F)C6)nc4c3F)c12 [Compound 147, 2-amino-4-(6-chloro-4-((1R,4R)-2-(3-chloro-1H-1,2,4-triazole-1-carbonyl)-1-cyclopropyl-2,6-diazaspiro[3.6]decan-6-yl)-8-fluoro-2-(((2R,7aS)-2-fluorotetrahydro-1H-pyrrolizin-7a(5H)-yl)methoxy)quinazolin-7-yl)-7-fluorobenzo[b]thiophene-3-carbonitrile]",≤ 500 nM,–
"CC1N(C(=O)n2cncn2)CC12CCCN(c1nc(OC[C@@]34CCCN3C[C@H](F)C4)nc3c(F)c(-c4ccc(F)c5sc(N)c(C#N)c45)c(Cl)cc13)C2 (stereo partly drawn) [Compound 182, 2-amino-4-(6-chloro-8-fluoro-2-(((2R,7aS)-2-fluorotetrahydro-1H-pyrrolizin-7a(5H)-yl)methoxy)-4-(1-methyl-2-(1H-1,2,4-triazole-1-carbonyl)-2,6-diazaspiro[3.5]nonan-6-yl)quinazolin-7-yl)-7-fluorobenzo[b]thiophene-3-carbonitrile]",≤ 500 nM,–
"CC1CC2C(CCCN2c2nc(OC[C@@]34CCCN3C[C@H](F)C4)nc3c(F)c(-c4ccc(F)c5sc(N)c(C#N)c45)c(Cl)cc23)N1C(=O)n1cncn1 (stereo partly drawn) [Compound 113, 2-amino-4-(6-chloro-8-fluoro-2-(((2R,7aS)-2-fluorotetrahydro-1H-pyrrolizin-7a(5H)-yl)methoxy)-4-(2-methyl-1-(1H-1,2,4-triazole-1-carbonyl)octahydro-4H-pyrrolo[3,2-b]pyridin-4-yl)quinazolin-7-yl)-7-fluorobenzo[b]thiophene-3-carbonitrile]",–,500 to 5000 nM
"CC([C@H]1CCN1C(=O)n1cnc(Cl)n1)N(C)c1nc(OC[C@@]23CCCN2C[C@H](F)C3)nc2c(F)c(-c3ccc(F)c4sc(N)c(C#N)c34)c(Cl)cc12 (stereo partly drawn) [Compound 172, (4R)-2-amino-4-(6-chloro-4-((1-(1-(3-chloro-1H-1,2,4-triazole-1-carbonyl)azetidin-2-yl)ethyl)(methyl)amino)-8-fluoro-2-(((2R,7aS)-2-fluorotetrahydro-1H-pyrrolizin-7a (5H)-yl)methoxy)quinazolin-7-yl)-7-fluorobenzo[b]thiophene-3-carbonitrile]",–,500 to 5000 nM
"CCN(C(=O)n1cncn1)C1CCCN(c2nc(OC[C@@]34CCCN3C[C@H](F)C4)nc3c(F)c(-c4ccc(F)c5sc(N)c(C#N)c45)c(Cl)cc23)C1 (stereo partly drawn) [Compound 209, N-(1-(7-(2-amino-3-cyano-7-fluorobenzo[b]thiophen-4-yl)-6-chloro-8-fluoro-2-(((2R,7aS)-2-fluorotetrahydro-1H-pyrrolizin-7a(5H)-yl)methoxy)quinazolin-4-yl)piperidin-3-yl)-N-ethyl-1H-1,2,4-triazole-1-carboxamide]",≤ 500 nM,–
"CN(C[C@@H]1CN(C(=O)n2cnc(F)n2)[C@@H]1C1(C)CC1)c1nc(OC[C@@]23CCCN2C[C@H](F)C3)nc2c(F)c(-c3ccc(F)c4sc(N)c(C#N)c34)c(Cl)cc12 [Compound 130, 2-amino-4-(6-chloro-8-fluoro-4-((((2S,3R)-1-(3-fluoro-1H-1,2,4-triazole-1-carbonyl)-2-(1-methylcyclopropyl)azetidin-3-yl)methyl)(methyl)amino)-2-(((2R,7aS)-2-fluorotetrahydro-1H-pyrrolizin-7a(5H)-yl)methoxy)quinazolin-7-yl)-7-fluorobenzo[b]thiophene-3-carbonitrile]",≤ 500 nM,–
"CC1([C@H]2N(C(=O)n3cnc(F)n3)C[C@]23CCCCN(c2nc(OC[C@@]45CCCN4C[C@H](F)C5)nc4c(F)c(-c5ccc(F)c6sc(N)c(C#N)c56)c(Cl)cc24)C3)CC1 (atropisomer, axis not shown; (aS)) [Compound 193, (R)-2-amino-4-(6-chloro-8-fluoro-4-((1R,4R)-2-(3-fluoro-1H-1,2,4-triazole-1-carbonyl)-1-(1-methylcyclopropyl)-2,6-diazaspiro[3.6]decan-6-yl)-2-(((2R,7aS)-2-fluorotetrahydro-1H-pyrrolizin-7a (5H)-yl)methoxy)quinazolin-7-yl)-7-fluorobenzo[b]thiophene-3-carbonitrile]",≤ 500 nM,–
"CCC1N(C(=O)n2cncn2)CC12CCN(c1nc(OC[C@@]34CCCN3C[C@H](F)C4)nc3c(F)c(-c4ccc(F)c5sc(N)c(C#N)c45)c(Cl)cc13)C2 (stereo partly drawn) [Compound 123, (4R)-2-amino-4-(6-chloro-4-(1-ethyl-2-(1H-1,2,4-triazole-1-carbonyl)-2,6-diazaspiro[3.4]octan-6-yl)-8-fluoro-2-(((2R,7aS)-2-fluorotetrahydro-1H-pyrrolizin-7a(5H)-yl)methoxy)quinazolin-7-yl)-7-fluorobenzo[b]thiophene-3-carbonitrile]",≤ 500 nM,–
"N#CCCN(C(=O)n1cncn1)C1CCCN(c2nc(OC[C@@]34CCCN3C[C@H](F)C4)nc3c(F)c(-c4ccc(F)c5sc(N)c(C#N)c45)c(Cl)cc23)CC1 (stereo partly drawn) [Compound 166, N-(1-(7-(2-amino-3-cyano-7-fluorobenzo[b]thiophen-4-yl)-6-chloro-8-fluoro-2-(((2R,7aS)-2-fluorotetrahydro-1H-pyrrolizin-7a(5H)-yl)methoxy)quinazolin-4-yl)azepan-4-yl)-N-(2-cyanoethyl)-1H-1,2,4-triazole-1-carboxamide]",–,500 to 5000 nM
"N#Cc1c(N)sc2c(F)ccc(-c3c(Cl)cc4c(N5CCCC(N(C(=O)n6cnc(Cl)n6)C6CC6)C5)nc(OC[C@@]56CCCN5C[C@H](F)C6)nc4c3F)c12 (stereo partly drawn) [Compound 151, N-(1-(7-(2-amino-3-cyano-7-fluorobenzo[b]thiophen-4-yl)-6-chloro-8-fluoro-2-(((2R,7aS)-2-fluorotetrahydro-1H-pyrrolizin-7a(5H)-yl)methoxy)quinazolin-4-yl)piperidin-3-yl)-3-chloro-N-cyclopropyl-1H-1,2,4-triazole-1-carboxamide]",–,500 to 5000 nM
"CC1([C@H]2N(C(=O)n3cnc(F)n3)C[C@]23CCCN(c2nc(OC[C@@]45CCCN4C[C@H](F)C5)nc4c(F)c(-c5ccc(F)c6sc(N)c(C#N)c56)c(Cl)cc24)C3)CC1 [Compound 216, 2-amino-4-(6-chloro-8-fluoro-4-((1R,4R)-2-(3-fluoro-1H-1,2,4-triazole-1-carbonyl)-1-(1-methylcyclopropyl)-2,6-diazaspiro[3.5]nonan-6-yl)-2-(((2R,7aS)-2-fluorotetrahydro-1H-pyrrolizin-7a(5H)-yl)methoxy)quinazolin-7-yl)-7-fluorobenzo[b]thiophene-3-carbonitrile]",≤ 500 nM,–
"CN(C[C@@H]1CN(C(=O)n2cnc(C#N)n2)[C@@H]1C1CCC1)c1nc(OC[C@@]23CCCN2C[C@H](F)C3)nc2c(F)c(-c3ccc(F)c4sc(N)c(C#N)c34)c(Cl)cc12 (atropisomer, axis not shown; (aS)) [Compound 150, 1-((2R,3R)-3-(((7-((R)-2-amino-3-cyano-7-fluorobenzo[b]thiophen-4-yl)-6-chloro-8-fluoro-2-(((2R,7aS)-2-fluorotetrahydro-1H-pyrrolizin-7a (5H)-yl)methoxy)quinazolin-4-yl)(methyl)amino)methyl)-2-cyclobutylazetidine-1-carbonyl)-1H-1,2,4-triazole-3-carbonitrile]",≤ 500 nM,–
"CC(C)[C@H]1N(C(=O)n2cnc(C#N)n2)C[C@]12CC[C@H](C)N(c1nc(OC[C@@]34CCCN3C[C@H](F)C4)nc3c(F)c(-c4ccc(F)c5sc(N)c(C#N)c45)c(Cl)cc13)C2 [Compound 227, 1-((1R,4R,7S)-6-(7-(2-amino-3-cyano-7-fluorobenzo[b]thiophen-4-yl)-6-chloro-8-fluoro-2-(((2R,7aS)-2-fluorotetrahydro-1H-pyrrolizin-7a(5H)-yl)methoxy)quinazolin-4-yl)-1-isopropyl-7-methyl-2,6-diazaspiro[3.5]nonane-2-carbonyl)-1H-1,2,4-triazole-3-carbonitrile]",≤ 500 nM,–
"CCN(C(=O)n1cncn1)C1CCN(c2nc(OC[C@@]34CCCN3C[C@H](F)C4)nc3c(F)c(-c4ccc(F)c5sc(N)c(C#N)c45)c(Cl)cc23)C1 (stereo partly drawn) [Compound 177, N-(1-(7-(2-amino-3-cyano-7-fluorobenzo[b]thiophen-4-yl)-6-chloro-8-fluoro-2-(((2R,7aS)-2-fluorotetrahydro-1H-pyrrolizin-7a(5H)-yl)methoxy)quinazolin-4-yl)pyrrolidin-3-yl)-N-ethyl-1H-1,2,4-triazole-1-carboxamide]",≤ 500 nM,–
"CC1C2C(CCN2c2nc(OC[C@@]34CCCN3C[C@H](F)C4)nc3c(F)c(-c4ccc(F)c5sc(N)c(C#N)c45)c(Cl)cc23)CN1C(=O)n1cncn1 (single isomer, unassigned) [Compound 121]",–,500 to 5000 nM
"CC(C)[C@H]1N(C(=O)n2cnc(C(F)F)n2)C[C@]12CCCCN(c1nc(OC[C@@]34CCCN3C[C@H](F)C4)nc3c(F)c(-c4ccc(F)c5sc(N)c(C#N)c45)c(Cl)cc13)C2 [Compound 226, 2-amino-4-(6-chloro-4-((1R,4R)-2-(3-(difluoromethyl)-1H-1,2,4-triazole-1-carbonyl)-1-isopropyl-2,6-diazaspiro[3.6]decan-6-yl)-8-fluoro-2-(((2R,7aS)-2-fluorotetrahydro-1H-pyrrolizin-7a(5H)-yl)methoxy)quinazolin-7-yl)-7-fluorobenzo[b]thiophene-3-carbonitrile]",≤ 500 nM,–
